Source: US20180200233A1, “COMPOSITIONS FOR PREVENTING CANCERS ASSOCIATED WITH HUMAN PAPILLOMA VIRUSES” (Loma Linda University, priority 2015, published 2018)

Tests used:
[1] = target: T1, GST-caspase 8/His-caspase 8 (Homo sapiens, UniProt Q14790); experiment: AlphaScreen counter-screen, GST-caspase 8/His-caspase 8 binding; settings: for EC50 for GST-caspase 8/His-caspase 8 interaction: compounds tested 1.4 μM to 3.2 mM
T1 construct: pTriEx-Caspase-8 DED plasmids; fused on or other part: GST tag on one copy, His tag on the other (AlphaScreen bead handles)
T1 sequence (Q14790 whole entry, the tested form may be a part): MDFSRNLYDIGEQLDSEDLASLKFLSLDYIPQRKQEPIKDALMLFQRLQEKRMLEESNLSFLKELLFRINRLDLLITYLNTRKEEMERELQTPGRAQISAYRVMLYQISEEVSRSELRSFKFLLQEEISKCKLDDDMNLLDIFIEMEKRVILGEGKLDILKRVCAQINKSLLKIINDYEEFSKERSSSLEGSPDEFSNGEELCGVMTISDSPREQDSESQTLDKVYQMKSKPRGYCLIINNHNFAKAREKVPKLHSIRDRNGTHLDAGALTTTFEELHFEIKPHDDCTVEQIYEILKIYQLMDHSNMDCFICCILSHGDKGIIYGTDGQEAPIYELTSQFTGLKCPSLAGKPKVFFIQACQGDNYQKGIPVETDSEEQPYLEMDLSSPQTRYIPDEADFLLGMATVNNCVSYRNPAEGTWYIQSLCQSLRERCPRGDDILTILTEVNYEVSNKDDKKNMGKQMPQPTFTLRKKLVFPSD
Method: FIGS. 2A-C are graphs providing data regarding inhibition of protein-protein interactions by 3-(1H-indol-1yl)propan-1-amine (1), three benzimidazole derivatives (2-4), and spinacine (5). Compounds, at the indicated concentrations (1.4 μM to 3.2 mM) were tested using a bead-based screening assay for their ability to inhibit three different protein/protein interactions: (FIG. 2A) GST-E6/His-caspase 8; (FIG. 2B) GST-E6/HisE6AP; and (FIG. 2C) GST-caspase 8/His-caspase 8. Binding in the presence of 1.4 μM of the test compound was set at 100%. Experiments were performed in triplicate, and error bars indicate the standard deviation.
To ask whether this inhibition was specific, a counter-screening assay was employed the ability of candidates to inhibit the binding of GST-caspase 8 to His-caspase 8 was assessed; those that did were to be eliminated. In this counter-screening assay, the materials in each well were the same as in the primary screen, with the exception that GST-caspase 8 replaced GST-E6.
Alpha-Screen™ technology was used to assess the interactions between GST-E6, GST-caspase 8, His-E6AP, and His-caspase 8. Binding assays were performed in white 384-well plates (Perkin-Elmer) in a total volume of 25 μl as previously described (Tungteakkhun, S. S., et al., The interaction between human papillomavirus type 16 and FADD is mediated by a novel E6 binding domain. Journal of virology, 2008. 82(19): p. 9600-14). Briefly, 5 μl (50 ng) of GST-E6 and 5 μl (87.5 ng) of His-caspase 8 were included in each reaction mixture with 5 μl blocking buffer (0.5 mg BSA, 0.5% Tween 20 in PBS) in the absence or presence of 10 μM of each test chemical. Members of the library were present at […] in DMSO. After a one-hour incubation of the mixture at room temperature, 5 μl donor beads and 5 μl acceptor beads (Perkin-Elmer) were added to each well according to the manufacturer's protocol. The mixture was incubated in the dark at room temperature overnight, and the emitted signal was detected using the Envision Multilabel plate reader (Perkin-Elmer). In the presence of test chemicals, the binding affinity was calculated as a percentage of the binding in the presence of carrier only (DMSO).

[2] = tested on: SCC84 (#84) cells; experiment: MTT cell viability, HPV- HNSCC cell line #84 with TRAIL; assay type: cell-based; settings: 50 ng/ml TRAIL with myricetin 0-200 μM or spinacine 0-100 μM
Method: FIGS. 7A-E are graphs showing myricetin and spinacine (5) re-sensitized HPV^+, but not HPV^−, head and neck cancer cell lines to treatment with TRAIL. (FIG. 7A) Both HPV^− and HPV^+ HN cancer cell lines display resistance to TRAIL treatment. HPV^− (#84) (Myricetin—FIG. 7B; Spinacine—FIG. 7C) and HPV^+ (#90) (FIG. 7D; Spinacine—FIG. 7E) head and neck cancer cell lines (2×10^4 cells per well) were seeded into 96-well plates and allowed to incubate overnight, then cells were pre-treated with myricetin (0-200 μM) or spinacine (0-100 μM) for 4 h. […] Cell viability was measured by the MTT assay, and the viability of cells untreated with small molecules was set at 100%. Experiments were performed in triplicate, and error bars indicate the standard deviation.
As shown above, myricetin and spinacine sensitize SiHa cells to TRAIL and chemotherapy drugs. […] Other types of HPV^+ cancer cells were examined, and in particular, head and neck squamous cell carcinoma (HNSCC) cells can also be sensitized in this manner. […]
(§1) The extracellular domain of human TRAIL was cloned into a pTriEx expression plasmid containing N-terminal Hisx6 tag. […] All experiments were repeated at least three times (three biological replicates, carried out on different days), with each experimental group measured in triplicate within each of these individual experiments. […]

[3] = tested on: UPCI-SCC90-UP-Clone 35 (#90) cells; experiment: MTT cell viability, HPV+ HNSCC cell line #90 with TRAIL; assay type: cell-based; settings: HPV+ #90 cells, 50 ng/ml TRAIL
Method: FIGS. 7A-E are graphs showing myricetin and spinacine (5) re-sensitized HPV^+, but not HPV^−, head and neck cancer cell lines to treatment with TRAIL. (FIG. 7A) Both HPV^− and HPV^+ HN cancer cell lines display resistance to TRAIL treatment. HPV^− (#84) (Myricetin—FIG. 7B; Spinacine—FIG. 7C) and HPV^+ (#90) (FIG. 7D; Spinacine—FIG. 7E) head and neck cancer cell lines (2×10^4 cells per well) were seeded into 96-well plates and allowed to incubate overnight, then cells were pre-treated with myricetin (0-200 μM) or spinacine (0-100 μM) for 4 h. […] of TRAIL, along with cycloheximide (5 μg/ml) was added and cells were allowed to incubate overnight. Cell viability was measured by the MTT assay, and the viability of cells untreated with small molecules was set at 100%. Experiments were performed in triplicate, and error bars indicate the standard deviation.
As shown above, myricetin and spinacine sensitize SiHa cells to TRAIL and chemotherapy drugs. […] Other types of HPV^+ cancer cells were examined, and in particular, head and neck squamous cell carcinoma (HNSCC) cells can also be sensitized in this manner. […] For the combination experiments, 50 ng/ml TRAIL was applied in combination with either myricetin (0-200 μM) or spinacine (0-100 μM). […] In contrast […], TRAIL-induced cell death was enhanced 30% in UPCI-SCC90-UP-Clone 35, #90. Furthermore, 40 μM spinacine was able to enhance TRAIL-induced cell death in the HPV^+ #90 cell lines up to 50%.
as §1, with “tag. His-TRAIL was expressed in the E. coli BL-21 pLys strain and purified as previously described. Doxorubicin and cisplatin were purchased from Sigma. His-TRAIL, doxorubicin, and cisplatin were diluted in PBS to the desired concentration before using.” for “tag.”

[4] = Galli et al. 1989, 13-week oral study in rats, spinacine hydrochloride; cited from earlier work
[5] = target: T2, GST-E6 (Human papillomavirus type 16, UniProt P03126); experiment: Direct binding to E6 (FIG. 9); set-up: species or system HPV 16
T2 construct: made in house
T2 sequence (P03126 whole entry): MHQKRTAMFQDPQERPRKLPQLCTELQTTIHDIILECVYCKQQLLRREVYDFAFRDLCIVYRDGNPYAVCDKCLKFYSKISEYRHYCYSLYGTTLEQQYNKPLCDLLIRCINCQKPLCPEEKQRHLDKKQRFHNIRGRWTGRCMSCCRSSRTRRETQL

SMILES	EC50 for GST-caspase 8/His-caspase 8 interaction [1]	inhibition of caspase 8/caspase 8 interaction (in words) ([1]; FIG. 2C)	response of HPV- HNSCC cell line #84 to TRAIL (in words) [2]	enhancement of TRAIL-induced cell death ([3]; 40 μM spinacine)	safety and tolerability (in words) [4]	binding to GST-E6 (in words) ([5]; FIG. 9)	N (binding stoichiometry) ([5]; spinacine binding to GST-E6, FIG. 9)	enhancement of TRAIL-induced cell death ([3]; myricetin 0-200 μM)
OCn1cnc2ccccc21 [Compound 3, 1H-benzimidazole-1-methanol]	No Inhibition	–	–	–	–	–	–	–
O=C(O)C1Cc2[nH]cnc2CN1 (stereo not shown) [Compound 5, 4,5,6,7-Tetrahydro-1H-imidazo(4,5-c)pyridine-6-carboxylic acid]	No	did not significantly inhibit	resistant	up to 50%	safe, well-tolerated	able to bind to GST-E6	about 0.5	–
O=c1c(O)c(-c2cc(O)c(O)c(O)c2)oc2cc(O)cc(O)c12 [Myricetin, reference compound]	–	–	resistant	–	–	–	–	30%
